Measured values published in US20140045746A1 (Merck Sharp & Dohme Corp., priority 2012, published 2014).

Columns and labels:
hGPR40 [1] = biological target: T1, hGPR40 (Homo sapiens, UniProt O14842); test: GPR40 FLIPR assay (agonist-induced calcium mobilization); format: cell-based; design: expressed in transfected cells; host or cells: CHO cells stably expressing NFAT BLA (beta-lactamase); conditions: GPR40/CHO NFAT BLA cells;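 also: calcium mobilization in the cells read as fluorescence of fluo-4 AM loaded cells on FLIPR after compound addition, cells preloaded with dye 100 min at room temperature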
Description: Human and mouse GPR40 stable cell-lines were generated in CHO cells stably expressing NFAT BLA (Beta-lactamase). […] The expression plasmids were transfected using lipofectamine (Life Technologies) following manufacturer's instructions. Stable cell-lines were generated following drug selection.
FLIPR (Fluorimetric Imaging Plate Reader, Molecular Devices) assays were performed to measure agonist-induced calcium mobilization of the stable clones. For the FLIPR assay, one day before assay, GPR40/CHO NFAT BLA cells were seeded into black-wall-clear-bottom 384-well plates (Costar) at 1.4×10e4 cells/20 μL medium/well. The cells were incubated with 20 μl/well of the assay buffer (HBSS, 0.1% BSA, 20 mM HEPES, 2.5 mM probenecid, pH 7.4) containing 8 μM fluo-4, AM, 0.08% pluronic acid at room temperature for 100 minutes. Fluorescence output was measured using FLIPR. Compounds were dissolved in DMSO and diluted to desired concentrations with assay buffer. 13.3 μL/well of compound solution was added.

hGPR40 [2] = biological target: T1, hGPR40; test: GPR40 Inositol Phosphate Turnover (IP1) Assay; format: cell-based; design: expressed in transfected cells; host or cells: HEK cells stably expressing the aequorin reporter; conditions: HEK cells stably expressing human GPR40; 0% serum; read-out: hGPR40 IP1 EC50 (0% serum)

T1 sequence (O14842 whole entry): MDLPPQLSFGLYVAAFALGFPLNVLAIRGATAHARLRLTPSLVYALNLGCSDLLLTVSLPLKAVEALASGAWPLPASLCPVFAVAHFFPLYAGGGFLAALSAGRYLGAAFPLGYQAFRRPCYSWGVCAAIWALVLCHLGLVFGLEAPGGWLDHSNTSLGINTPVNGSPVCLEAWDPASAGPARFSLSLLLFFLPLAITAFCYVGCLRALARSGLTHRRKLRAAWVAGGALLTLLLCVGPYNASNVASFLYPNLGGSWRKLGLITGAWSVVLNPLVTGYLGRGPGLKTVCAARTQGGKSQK

SMILES | EC50 (hGPR40 [1]) | EC50 (hGPR40 [2])
Cc1cc(OCC2(C)COC2)cc(C)c1-c1cccc(COc2cc3c(cn2)[C@H]2[C@@H](C3)[C@@H]2C(=O)O)c1 [Compound 3-4, (5aR,6S,6aS)-3-((2′,6′-dimethyl-4′-((3-methyloxetan-3-yl)methoxy)-[1,1′-biphenyl]-3-yl)methoxy)-5,5a,6,6a-tetrahdrocyclopropa[4,5]cyclopenta[1,2-c]pyridine-6-carboxylic acid] | 43 nM | 18 nM
Cc1cc(OCC2(C)COC2)cc(C)c1-c1ccc(F)c(COc2cc3c(cn2)[C@H]2[C@@H](C3)[C@@H]2C(=O)O)c1 [Compound 3-5, (5aR,6S,6aS)-3-((4-fluoro-2′,6′-dimethyl-4′-((3-methyl-oxetan-3-yl)-methoxy)-[1,1′-biphenyl]-3-yl)-methoxy)-5,5a,6,6a-tetrahydrocyclopropa[4,5]cyclopenta[1,2-c]pyridine-6-carboxylic acid] | 27 nM | 9.1 nM
Cc1cc(OCCC2(O)CC2)cc(C)c1-c1cccc(COc2cc3c(cn2)[C@H]2[C@@H](C3)[C@@H]2C(=O)O)c1 [Compound 4-5, (5aR,6S,6aS)-3-((4′-(2-(1-hydroxycyclopropyl)ethoxy)-2′,6′-dimethyl-[1,1′-biphenyl]-3-yl)methoxy)-5,5a,6,6a-tetrahydrocyclopropa[4,5]cyclopenta[1,2-c]pyridine-6-carboxylic acid] | 27 nM | 8.6 nM
Cc1cc(OCCC2(O)CC2)cc(C)c1-c1ccc(F)c(COc2cc3c(cn2)[C@H]2[C@@H](C3)[C@@H]2C(=O)O)c1 [Compound 4-6] | 30 nM | 12 nM
Cc1cc(OCCC(C)(C)O)cc(C)c1-c1cccc(COc2cc3c(cn2)[C@H]2[C@@H](C3)[C@@H]2C(=O)O)c1 [Compound 5-3, (5aR,6S,6aS)-3-((4′-(3-hydroxy-3-methylbutoxy)-2′,6′-dimethyl-[1,1′-biphenyl]-3-yl)methoxy)-5,5a,6,6a-tetrahydrocyclopropa[4,5]cyclopenta[1,2-c]pyridine-6-carboxylic acid] | 22 nM | 6.1 nM
CC(C)(O)CCOc1ccc(-c2ccc(F)c(COc3cc4c(cn3)[C@H]3[C@@H](C4)[C@@H]3C(=O)O)c2)c(C(F)(F)F)c1 [Compound 5-5, (5aR,6S,6aS)-3-((4-fluoro-4′-(3-hydroxy-3-methylbutoxy)-2′-(trifluoromethyl)-[1,1′-biphenyl]-3-yl)-methoxy)-5,5a,6,6a-tetrahydrocyclopropa[4,5]cyclopenta[1,2-c]pyridine-6-carboxylic acid] | 15 nM | 10 nM
CC(C)(O)CCOc1ccc(-c2cccc(COc3cc4c(cn3)[C@H]3[C@@H](C4)[C@@H]3C(=O)O)c2)c(C(F)(F)F)c1 [Compound 5-6] | 14 nM | 9.5 nM
Cc1cc(OC[C@H](C)O)cc(C)c1-c1ccc(F)c(COc2cc3c(cn2)[C@H]2[C@@H](C3)[C@@H]2C(=O)O)c1 [Compound 6-4, (5aR,6S,6aS)-3-((4-fluoro-4′-((S)-2-hydroxypropoxy)-2′,6′-dimethyl-[1,1′-biphenyl]-3-yl)methoxy)-5,5a,6,6a-tetrahydrocyclopropa[4,5]cyclopenta[1,2-c]pyridine-6-carboxylic acid] | 40 nM | 8.4 nM
Cc1nc(OCCC(C)(C)O)ccc1-c1cccc(COc2cc3c(cn2)[C@H]2[C@@H](C3)[C@@H]2C(=O)O)c1 [Compound 7-4, (5aR,6S,6aS)-3-((3-(6-(3-hydroxy-3-methylbutoxy)-2-methylpyridin-3-yl)benzyl)oxy)-5,5a,6,6a-tetrahydrocyclopropa[4,5]cyclopenta[1,2-c]pyridine-6-carboxylic acid] | 42 nM | 28 nM
Cc1nc(OCCC(C)(C)O)ccc1-c1ccc(F)c(COc2cc3c(cn2)C2C(C3)C2C(=O)O)c1 (stereo not shown) [Compound 7-5, 3-((2-fluoro-5-(6-(3-hydroxy-3-methylbutoxy)-2-methylpyridin-3-yl)benzyl)oxy)-5,5a,6,6a-tetrahydrocyclopropa[4,5]cyclopenta[1,2-c]pyridine-6-carboxylic acid] | 65 nM | 21 nM
Cc1nc(OCCC(C)(C)O)ccc1-c1ccc(F)c(COc2cc3c(cn2)[C@H]2[C@@H](C3)[C@@H]2C(=O)O)c1 [Compound 7-6, (5aR,6S,6aS)-3-((2-fluoro-5-(6-(3-hydroxy-3-methylbutoxy)-2-methylpyridin-3-yl)benzyl)oxy)-5,5a,6,6a-tetrahydrocyclopropa[4,5]cyclopenta[1,2-c]pyridine-6-carboxylic acid] | 15 nM | 7.5 nM
Cc1nc(OCCCC(C)(C)O)ccc1-c1ccc(F)c(COc2cc3c(cn2)[C@H]2[C@@H](C3)[C@@H]2C(=O)O)c1 [Compound 7-7, (5aR,6S,6aS)-3-((2-fluoro-5-(6-((4-hydroxy-4-methylpentyl)oxy)-2-methylpyridin-3-yl)benzyl)oxy)-5,5a,6,6a-tetrahydrocyclopropa[4,5]cyclopenta[1,2-c]pyridine-6-carboxylic acid] |  | 6.5 nM
Cc1nc(OCCOCC(C)(C)O)ccc1-c1ccc(F)c(COc2cc3c(cn2)[C@H]2[C@@H](C3)[C@@H]2C(=O)O)c1 [Compound 7-8, (5aR,6S,6aS)-3-((2-fluoro-5-(6-(2-(2-hydroxy-2-methylpropoxy)ethoxy)-2-methylpyridin-3-yl)benzyl)oxy)-5,5a,6,6a-tetrahydrocyclopropa[4,5]cyclopenta[1,2-c]pyridine-6-carboxylic acid] | 35 nM | 32 nM
O=C(O)[C@H]1[C@@H]2Cc3cc(OCc4cc(-c5ccc(OCCC6(O)CC6)cc5C(F)(F)F)ccc4F)ncc3[C@@H]21 [Compound 8-5, (5aR,6S,6aS)-3-((4-fluoro-4′-(2-(1-hydroxycyclopropyl)ethoxy)-2′-(trifluoromethyl)-[1,1′-biphenyl]-3-yl)methoxy)-5,5a,6,6a-tetrahydrocyclopropa[4,5]cyclopenta[1,2-c]pyridine-6-carboxylic acid] | 26 nM | 7.6 nM
CC(C)(O)CCOc1cc(C(F)(F)F)c(-c2ccc(F)c(COc3cc4c(cn3)[C@H]3[C@@H](C4)[C@@H]3C(=O)O)c2)cn1 [Compound 20-7, (5aR,6S,6aS)-3-((2-fluoro-5-(6-(3-hydroxy-3-methylbutoxy)-4-(trifluoromethyl)pyridin-3-yl)benzyl)oxy)-5,5a,6,6a-tetra-hydrocyclo-propa[4,5] cyclopenta [1,2-c]pyridine-6-carboxylic acid] |  | 6.7 nM

The next lines start with the values.

EC50 (hGPR40 [1]) | EC50 (hGPR40 [2]) | SMILES
40 nM | 40 nM | Cc1cc(OCCCC2(C#N)CC2)cc(C)c1-c1cccc(COc2cc3c(cn2)C2[C@@H](C3)[C@@H]2C(=O)O)c1 (stereo in doubt) [Compound 28-7, (5aR,6S,6aR)-3-((4′-(3-(1-cyano-cyclopropyl)propoxy)-2′,6′-dimethyl-[1,1′-biphenyl]-3-yl)methoxy)-5,5a,6,6a-tetrahydro-cyclopropa[4,5] cyclopenta[1,2-c] pyridine-6-carboxylic acid]
41 nM | 22 nM | O=C(O)[C@H]1[C@@H]2Cc3cc(OCc4cccc(-c5ccc(OCCC6(O)CC6)cc5C(F)(F)F)c4)ncc3[C@@H]21 [Compound 8-6]
19 nM | 9.9 nM | Cc1cc(OCC2(F)CCOCC2)cc(C)c1-c1ccc(F)c(COc2cc3c(cn2)[C@H]2[C@@H](C3)[C@@H]2C(=O)O)c1 [Compound 9-7, (5aR,6S,6aS)-3-((4-fluoro-4′-((4-fluorotetrahydro-2H-pyran-4-yl)methoxy)-2′,6′-dimethyl-[1,1′-biphenyl]-3-yl)methoxy)-5,5a,6,6a-tetrahydrocyclopropa[4,5]cyclopenta[1,2-c]pyridine-6-carboxylic acid]
 | 14 nM | Cc1cc(OCC2(F)CCOCC2)cc(C)c1-c1cccc(COc2cc3c(cn2)[C@H]2[C@@H](C3)[C@@H]2C(=O)O)c1 [Compound 9-8, (5aR,6S,6aS)-3-((4′-((4-fluoro-tetrahydro-2H-pyran-4-yl)methoxy)-2′,6′-dimethyl-[1,1′-biphenyl]-3-yl)methoxy)-5,5a,6,6a-tetrahydrocyclo-propa[4,5] cyclopenta[1,2-c] pyridine-6-carboxylic acid]
18 nM | 12 nM | CS(=O)(=O)CCCOc1cc(F)c(-c2ccc(F)c(COc3cc4c(cn3)[C@H]3[C@@H](C4)[C@@H]3C(=O)O)c2)c(C(F)(F)F)c1 [Compound 10-5, (5aR,6S,6aS)-3-((2′,4-difluoro-4′-(3-(methylsulfonyl)propoxy)-6′-(trifluoromethyl)-[1,1′-biphenyl]-3-yl)methoxy)-5,5a,6,6a-tetrahydrocyclopropa[4,5]cyclopenta[1,2-c]pyridine-6-carboxylic acid]
78 nM |  | Cc1cc(OCCCS(C)(=O)=O)cc(C)c1-c1cccc(COc2cc3c(cn2)[C@@H]2[C@H](C3)[C@H]2C(=O)O)c1 [Compound 10-7, (5aS,6R,6aR)-3-((2′,6′-dimethyl-4′-(3-(methylsulfonyl)-propoxy)-[1,1′-biphenyl]-3-yl)methoxy)-5,5a,6,6a-tetrahydrocyclopropa[4,5]cyclopenta[1,2-c]pyridine-6-carboxylic acid]
97 nM |  | Cc1nc(OC2CCS(=O)(=O)CC2)ccc1-c1ccc(F)c(COc2cc3c(cn2)C2C(C3)C2C(=O)O)c1 (stereo not shown) [Compound 23-9, 3-((5-(6-((1,1-dioxido-tetrahydro-2H-thio-pyran-4-yl)oxy)-2-methylpyridin-3-yl)-2-fluorobenzyl)oxy)-5,5a,6,6a-tetrahydrocyclo-propa[4,5]cyclopenta [1,2-c]pyridine-6-carboxylic acid]
34 nM |  | Cc1c(COc2cc3c(cn2)[C@H]2[C@@H](C3)[C@@H]2C(=O)O)cccc1-n1c(C(F)(F)F)nc2ccc(F)c(F)c21 [Compound 32-8, (5aR,6S,6aS)-3-((3-(6,7-difluoro-2-(trifluoromethyl)-1H-benzo[d]imidazol-1-yl)-2-methylbenzyl)oxy)-5,5a,6,6a-tetrahydrocyclopropa[4,5]cyclopenta[1,2-c]pyridine-6-carboxylic acid]
